We go through 26 compounds from ChEMBL document CHEMBL1121624, “Synthesis, biological evaluation, and preliminary structure-activity considerations of a series of alkylphenols as intravenous anesthetic agents” (J Med Chem, 1980).

The species named for series [1] is Mus musculus. As to the kind of experiment: Hypnotic activity was measured as dose which causes loss of righting reflex for a minimum period of 30s in 50% of mice. It counts as functional.
Series [2] in a line: Acute toxicity measured as median lethal dose in mice. It counts as organism-based. As to conditions: mouse, in vivo.
Series [3] is described as follows: Acute toxicity measured as median lethal dose in mice; Range is 160-180. The class given is organism-based. Conditions: mouse, in vivo.
For series [4], the species on record is Mus musculus. As to the kind of experiment: Duration of analgesic action in mice was determined; B = brief, < 5 min. It counts as functional, organism-based.
The species entered for series [5] is Mus musculus. The series can be described thus: Hypnotic activity was measured as dose which causes loss of righting reflex for a minimum period of 30s in 50% of mice; Range is 20-30. The class given is functional.
The species entered for series [6] is Mus musculus. The series can be described thus: Speed of induction of analgesia in mice was determined; I = immediate, <10 s. It counts as functional, organism-based.
The species entered for series [7] is Mus musculus. As to the kind of experiment: Hypnotic activity was measured as dose which causes loss of righting reflex for a minimum period of 30s in 50% of mice; Range is 80-100. The class given is functional.
Series [8] is filed under the species Mus musculus. The series can be described thus: Duration of analgesic action in mice was determined; L = long, >10. It counts as functional, organism-based.
For series [9], the species on record is Mus musculus. The series can be described thus: Hypnotic activity was measured as dose which causes loss of righting reflex for a minimum period of 30s in 50% of mice; Range is 10-15. The class given is functional.
The species entered for series [10] is Mus musculus. The series can be described thus: Speed of induction of analgesia in mice was determined; S = slow, 10-15 s. It counts as functional, organism-based.
Series [11] is filed under the species Mus musculus. The series can be described thus: Hypnotic activity was measured as dose which causes loss of righting reflex for a minimum period of 30s in 50% of mice; Range is 10-20. It counts as functional.
For series [12], the species on record is Mus musculus. The series can be described thus: Hypnotic activity was measured as dose which causes loss of righting reflex for a minimum period of 30s in 50% of mice; Range is 30-40. The class given is functional.
A short description of series [13]: Acute toxicity measured as median lethal dose in mice; Range is 80-100. It counts as organism-based. Conditions: mouse, in vivo.
A short description of series [14]: Acute toxicity measured as median lethal dose in mice; Range is 40-60. It counts as organism-based. Conditions: mouse, in vivo.
Series [15] is described as follows: Acute toxicity measured as median lethal dose in mice; Range is 100-120. The class given is organism-based. Conditions: mouse, in vivo.
For series [16], the species on record is Mus musculus. The series can be described thus: Hypnotic activity was measured as dose which causes loss of righting reflex for a minimum period of 30s in 50% of mice; Range is 20-40. It counts as functional.
The species entered for series [17] is Mus musculus. As to the kind of experiment: Speed of induction of analgesia in mice was determined; VS = very slow, > 15s. It counts as functional, organism-based.
For series [18], the species on record is Mus musculus. As to the kind of experiment: Hypnotic activity was measured as dose which causes loss of righting reflex for a minimum period of 30s in 50% of mice; Range is 15-20. It counts as functional.
For series [19], the species on record is Mus musculus. The series can be described thus: Duration of analgesic action in mice was determined; M = moderate, 5-10 min. The class given is functional, organism-based.
For series [20], the species on record is Mus musculus. The series can be described thus: Hypnotic activity was measured as dose which causes loss of righting reflex for a minimum period of 30s in 50% of mice; Range is 5-10. It counts as functional.
The species named for series [21] is Mus musculus. The series can be described thus: Hypnotic activity was measured as dose which causes loss of righting reflex for a minimum period of 30s in 50% of mice; Range is 40-60. It counts as functional.

Each structure is given as a SMILES string.

As a reminder, the LD50 is the dose at which mortality reaches 50%. For `Cc1c(C(C)C)ccc(C(C)C)c1O`, the HD50 in the series filed under Mus musculus [1] was found to be 20 mg/kg. Moreover, the LD50 in series [2] is 100 mg/kg.

Regarding `Cc1cc(C)c(C(C)C)c(O)c1C(C)C`, the HD50 in the series filed under Mus musculus [1] worked out at 120 mg/kg. The same compound had a median lethal dose (LD50) in [3] of 160 mg/kg.

`Cc1cccc(C(C)C)c1O`: in the series filed under Mus musculus [4], the Duration of action result is given as “Brief duration”. In the series filed under Mus musculus [5], this compound came in with an HD50 of 20 mg/kg. Moreover, in the series filed under Mus musculus [6], the Speed of induction result is “Immediate”. Besides, the median lethal dose (LD50) in [2] came out at 80 mg/kg.

As to `CC(C)(C)c1cccc(C(C)(C)C)c1O`, the HD50 in the series listed under Mus musculus [7] was 80 mg/kg. In series [2], this compound yielded an LD50 of 120 mg/kg.

With `CCCC(C)c1cccc(C(C)C)c1O` (configuration not stated), in the series filed under Mus musculus [8], the Duration of action result was “Long”. The compound further returned an HD50 in the series listed under Mus musculus [9] of 10 mg/kg. The Speed of induction entry in the series filed under Mus musculus [10] is reported as “Slow”. In [2], this compound came in with a median lethal dose (LD50) of 80 mg/kg.

For `CCCc1cccc(C(C)CC)c1O` (configuration not stated), the Duration of action result in the series listed under Mus musculus [4] is given as “Brief duration”. The HD50 in the series filed under Mus musculus [11] was 10 mg/kg. Further, the Speed of induction entry in the series listed under Mus musculus [10] is given as “Slow”. Further, in [2], the LD50 amounted to 120 mg/kg.

On to `C=CCC1(C(C)C#CCC)C(=O)NC(=O)N(C)C1=O` (configuration not stated), for which the Duration of action result in the series filed under Mus musculus [4] was “Brief duration”. The Speed of induction entry in the series filed under Mus musculus [6] was “Immediate”.

On to `Cc1ccc(C(C)C)cc1O` [CARVACROL], for which the HD50 in the series filed under Mus musculus [12] came to 30 mg/kg. Moreover, the LD50 in series [13] turned out to be 80 mg/kg.

The compound `CCCCc1c(C)ccc(C(C)C)c1O` gave an HD50 in the series filed under Mus musculus [1] of 50 mg/kg. The compound also showed an LD50 in [2] of 150 mg/kg.

In turn, `CCC(C)c1ccc(O)cc1` (configuration not stated) came in with a 50% lethal dose (LD50) in series [14] of 40 mg/kg.

Compound `CC(C)c1ccccc1O` yielded an HD50 in the series filed under Mus musculus [12] of 30 mg/kg. The compound also returned an LD50 in series [15] of 100 mg/kg.

For the compound `CCCCc1cccc(C(C)C)c1O`, the Duration of action entry in the series filed under Mus musculus [4] was “Brief duration”. In the series filed under Mus musculus [1], the HD50 worked out at 20 mg/kg. Also, the Speed of induction entry in the series filed under Mus musculus [6] is reported as “Immediate”. For the same compound, the LD50 in [2] turned out to be 100 mg/kg.

`CCc1cc(C(C)C)c(O)c(C(C)C)c1` came in with an HD50 in the series listed under Mus musculus [1] of 20 mg/kg. In [13], this compound came in with a median lethal dose (LD50) of 80 mg/kg.

The compound `Cc1cc(C(C)(C)C)c(O)c(C(C)(C)C)c1` [BUTYLATED HYDROXYTOLUENE] had an HD50 in the series filed under Mus musculus [7] of 80 mg/kg.

With `CCCc1cccc(C(C)C)c1O`, in the series filed under Mus musculus [4], the Duration of action entry is “Brief duration”. The same compound registered an HD50 in the series listed under Mus musculus [5] of 20 mg/kg. Also, the Speed of induction entry in the series listed under Mus musculus [6] is on record as “Immediate”. Further, the LD50 in [2] came out at 80 mg/kg.

On to `CCC(C)c1cc(C)cc(C(C)CC)c1O` (configuration not stated), for which, in the series filed under Mus musculus [1], the HD50 is 30 mg/kg. Further, in series [2], the 50% lethal dose (LD50) came out at 140 mg/kg.

In the case of `CCCCc1cccc(CCC)c1O`, the Duration of action result in the series filed under Mus musculus [4] is “Brief duration”. The compound further yielded an HD50 in the series listed under Mus musculus [16] of 20 mg/kg. In addition, in the series listed under Mus musculus [17], the Speed of induction entry is listed as “Very slow”. In series [15], this compound showed an LD50 of 100 mg/kg.

Take `CCc1cccc(C(C)CC)c1O` (configuration not stated): in the series listed under Mus musculus [4], the Duration of action entry is on record as “Brief duration”. Besides, the HD50 in the series filed under Mus musculus [9] worked out at 10 mg/kg. In addition, in the series filed under Mus musculus [6], the Speed of induction result was “Immediate”. This compound also had a 50% lethal dose (LD50) in series [2] of 80 mg/kg.

For the compound `CCCC(C)c1ccccc1O` (configuration not stated), the HD50 in the series listed under Mus musculus [5] came out at 20 mg/kg. Further, the LD50 in series [2] was 100 mg/kg.

As to `CCCC(C)c1cccc(C(C)CCC)c1O` (configuration not stated), the Duration of action entry in the series filed under Mus musculus [8] is reported as “Long”. The HD50 in the series filed under Mus musculus [18] was found to be 15 mg/kg. In addition, the Speed of induction entry in the series filed under Mus musculus [17] is recorded as “Very slow”. The same compound registered an LD50 in [3] of 160 mg/kg.

In the series filed under Mus musculus [1], `Cc1cc(C(C)C)c(O)c(C(C)C)c1` had an HD50 of 20 mg/kg. Also, in series [13], the median lethal dose (LD50) came out at 80 mg/kg.

In the case of `CCCCC(C)c1cccc(C(C)C)c1O` (configuration not stated), the Duration of action result in the series listed under Mus musculus [8] was “Long”. In the series filed under Mus musculus [9], this compound had an HD50 of 10 mg/kg. The Speed of induction result in the series listed under Mus musculus [10] is “Slow”. Moreover, the LD50 in series [15] is 100 mg/kg.

In the case of `CCC(C)c1cccc(C(C)CC)c1O` (configuration not stated), the Duration of action entry in the series filed under Mus musculus [19] was “Moderate”. Also, in the series filed under Mus musculus [20], the HD50 is 5 mg/kg. For the same compound, the Speed of induction result in the series filed under Mus musculus [10] is given as “Slow”. In series [2], this compound displayed a median lethal dose (LD50) of 60 mg/kg.

Consider `CC(C)c1ccc(O)c(C(C)C)c1`, for which, in the series listed under Mus musculus [21], the HD50 stood at 40 mg/kg. The compound further came in with a 50% lethal dose (LD50) in [2] of 120 mg/kg.

As for `CC(C)c1cccc(C2CCCCC2)c1O`, the Duration of action result in the series filed under Mus musculus [8] was “Long”. Also, the HD50 in the series filed under Mus musculus [12] is 30 mg/kg. In the series filed under Mus musculus [10], the Speed of induction result is listed as “Slow”. This compound returned an LD50 in series [15] of 100 mg/kg.

In the series filed under Mus musculus [1], `Oc1ccccc1` [PHENOL] came in with an HD50 of 70 mg/kg. This compound gave a 50% lethal dose (LD50) in [2] of 100 mg/kg.
